Patent US20240261274A1, “TREATMENT OF MYC-DRIVEN CANCERS WITH GSPT1 DEGRADERS” (MONTE ROSA THERAPEUTICS, INC., priority 2021, published 2024)

Legend:
[1] = system: HMEC engineered to express c-Myc tagged with EGFP; test: 3D spheroid assay, myc-HMEC (CellTiterGlo3D); assay type: cell-based; details: Homo sapiens, bounds (codes D and E), read-out: EC50 value
Description: Human mammary epithelial cells (HMEC) were engineered to express either c-Myc tagged with EGFP or EGFP alone (non myc) (analogous but distinct from Kessler J D et al, Science. 2012 Jan. 20; 335(6066):348-53. doi: 10.1126/science.1212728; Hsu T Y et al, Nature. 2015 Sep. 17; 525(7569):384-8. doi: 10.1038/nature14985). The engineered cells were seeded at 1000 (myc) or 4000 (non myc) cells/well in a 384 ultra-low attachment plate in a total volume of 40 μL HMEC cell culture media (DMEM/F12+10% HI-FBS+15 mM HEPES+0.5 ug/ml Hydrocortisone+10 ug/ml Insulin+20 ng/ml EGF). Plates were spun at 1200 rpm for 5 minutes at room temperature to ensure that cells have gathered in the middle of the well and incubated at 37° C. for 48 hrs before firing with compounds. On Day 2 (48 h post seeding) cells were imaged (brightfield and EGFP fluorescence) using the Celigo imaging cytometer prior to firing compounds. For primary screens, compounds were added at three concentrations (1.25, 10 and 30 uM) in a volume of 120 nL using the ECHO acoustic dispenser and spun at 2000 rpm for 2 minutes at room temperature before incubating at 37° C. for 5 days. […] On Day 7, prior to measuring cell viability using CellTiterGlo3D, cells were imaged (brightfield and EGFP fluorescence) on the Celigo imaging cytometer. The CellTiterGlo3D reagent is added at 30 uL/well and incubated at room temperature for 30 mins. After 30 mins of incubation, luminescence readings were recorded using the Perkin Elmer EnVision reader.

[2] = target: T1, Full length wild-type cereblon CRBN (Homo sapiens, UniProt Q96SW2); test: Fluorescence polarization (FP) assay indicating cereblon binding; details: bounds stated; read-out: IC50 value
T1 construct: Full length wild-type cereblon CRBN (80.0 nM, 10 μL) was incubated in assay buffer
Description: Compound activity was monitored in a fluorescence polarization (FP) homogeneous assay using 1-[5-({2-[2-(2-{[2-(2,6-dioxopiperidin-3-yl)-1,3-dioxo-2,3-dihydro-1H-isoindol-4-yl]oxy}acetamido)ethoxy]ethyl}carbamoyl)pentyl]-3,3-dimethyl-2-[(1E,3E)-5-[(2E)-1,3,3-trimethyl-5-sulfo-2,3-dihydro-1H-indol-2-ylidene]penta-1,3-dien-1-yl]-3H-indol-1-ium-5-sulfonate as a fluorescent probe. Unless otherwise stated, all reagents were purchased from Sigma Aldrich. Enzymatic reactions were conducted in Perkin-Elmer Black 384 well ProxiPlate Plus (catalogue no. 6008269) in 10 μL total volume. Full length wild-type cereblon CRBN (80.0 nM, 10 μL) was incubated in assay buffer containing 20 mM HEPES (pH 8.0), […], 0.5 mM TCEP and 0.05% Tween 20 in the presence or absence of compound (300 nL). Inhibitors were stored as 10 mM DMSO stocks in an inert environment (low humidity, dark, low oxygen, room temperature) using the Storage Pod System. Compounds and DMSO were dispensed using the Echo E5XX (Labcyte Inc. USA) to give concentrations from 300 to 0.937 or 3000 to 9.3 nM in a 12 data point curve. […] Following incubation at room temperature for 30 min, the assay was initiated by dispensing the probe to a final concentration of 5 nM (2.5 nL of a 20 μM stock) using the Echo E5XX. FP was measured after a period of 12 hours using a Pherastar plate reader (BMG Labtech, Germany) exciting at 590 nm and measuring the amount of parallel and perpendicular light at 675 nm. The FP signal was subsequently normalized to the no-compound control (i.e., DMSO). Analysis and IC50 values were derived using Dotmatics (Dotmatics UK) software.

IKZF3 = target: T2, IKZF3 (Homo sapiens, UniProt Q96SW2+Q9UKT9); test: Selectivity western blot assay in MM1 S cells, IKZF3; assay type: cell-based; parameters: key: A represents no degradation observed at 30 μM; B represents trace degradation at 30 μM (below 20%); C represents weak degradation at 30 μM (below 50%); D represents degradation at 30 μM (>90%); E represents degradation at 3 μM (>90%); F represents degradation at 0.3 μM (>90%); details: MM1 S cells, 0.3, 3 and 30 μM, 6 hours
T2 construct: endogenous in cells; host or cells: MM1 S (ATCC CRL-2974)
Description: (§1) MM1 S cells were purchased from ATCC (cat. Number CRL-2974), sub-cultured in 90% RPMI 1640 with 10% FBS, supplemented with 1×P/S and incubated at 37° C., 5% CO2. Compounds were stored as 10 mM DMSO stock. For the assay, MM1 S cells (3 million cells/well) were plated in 6-well plates and incubated over night. Cells were treated with respective compounds using a serial dilution: 0.3 μM, 3 μM and 30 μM as well as a vehicle only (DMSO) control for 6 hours. Media with suspension cells was subsequently transferred to 15 mL conical tubes, wells rinsed twice with ice-cold PBS and merged with cell suspension in respective 15 mL conical tube. Cells were spinned down, supernatant aspirated, pellets resuspended in ice-cold PBS and transferred to microtubes. Cells were spinned down, supernatant aspirated and pellets resuspended in 120 μL RIPA lysis buffer supplemented with protease and phosphatase inhibitors. Cell lysates were incubated on ice for 20 minutes followed by centrifugation at >20,000×g for 5 min. Supernatants were transferred to fresh microtubes and stored at −80° C. Total protein concentration was determined using a BCA assay with a BSA standard curve and concentration of all samples was adjusted to 1 mg/mL. 25 μL 4×LDS sample buffer supplemented with 100 mM DTT was added to 75 μL sample. Samples were centrifuged (8,000×g, 1 min) and incubated at 95° C. for 5 min followed by another centrifugation step (8,000×g, 1 min). 20 μL of each sample was loaded on a 4-12% gel alongside a protein molecular weight marker. Gels were run in the presence of MOPS buffer at 80 Volts for 30 min, followed by 120 Volts for 1.5 h and proteins subsequently transferred onto nitrocellulose membranes at 20 Volts for 7 min using an iBlot2 Gel Transfer Device. Membranes were then cut horizontally into two pieces, covering 80-50 kDa and 50-25 kDa. Blocking the membranes was performed by gently shaking in 5% (w/v) skim milk in TSB-T for 1 hr at room temperature. All primary antibodies were used at a 1/1000 in 5% (w/v) BSA dissolved in TBST and incubated with membranes over night at 4° C. After three washes with 1×TBST for 5 min, HRP-coupled secondary antibodies diluted in 5% (w/v) BSA/TBST (Goat Anti-Rb IgG, dil. 1/10,000; Goat Anti-Mouse IgG, dil. 1/5000) were added for 1 hr at room temperature. After three washes with 1×TBST (5 minutes each), membranes were incubated with ECL reagent for 1 min at room temperature. Chemiluminescence signals were then detected using a LAS-4000 system with default settings and signals quantified using Image Studio Lite software (version 5.2). Membrane parts previously incubated with antibody against CK1 alpha were stripped off antibodies by incubating with stripping buffer for 30 minutes followed by three washed with TBST (5 min each), blocking with 5% (w/v) skim milk for 1 hr, and incubation with primary antibody against uGAPDH overnight at 4° C. Subsequent washes, incubation with secondary antibody and signal acquisition were performed as described above.

GSPT1 [3] = target: T3, GSPT1 (Homo sapiens, UniProt P15170+Q96SW2); test: Selectivity western blot assay in MM1 S cells, GSPT1; assay type: cell-based; parameters: endogenous in cells; host or cells: MM1 S (ATCC CRL-2974); details: MM1 S cells, 0.3, 3 and 30 μM, 6 hours
Description: as §1

CK1alpha = target: T4, CK1alpha (Homo sapiens, UniProt P48729+Q96SW2); test: Selectivity western blot assay in MM1 S cells, CK1alpha; assay type: cell-based; details: MM1 S cells, 0.3, 3 and 30 μM, 6 hours
T4 construct: endogenous in cells; host or cells: MM1 S (ATCC CRL-2974)
Description: as §1

ZFP91 = target: T5, ZFP91 (Homo sapiens, UniProt Q96JP5+Q96SW2); test: Selectivity western blot assay in MM1 S cells, ZFP91; assay type: cell-based; details: MM1 S cells, 0.3, 3 and 30 μM, 6 hours
T5 construct: endogenous in cells; host or cells: MM1 S (ATCC CRL-2974)
Description: as §1

IKZF1 = target: T6, IKZF1 (Homo sapiens, UniProt Q13422+Q96SW2); test: Selectivity western blot assay in MM1 S cells, IKZF1; assay type: cell-based; parameters: key: A represents no degradation observed at 30 μM; B represents trace degradation at 30 μM (below 20%); C represents weak degradation at 30 μM (below 50%); D represents degradation at 30 μM (>90%); E represents degradation at 3 μM (>90%); F represents degradation at 0.3 μM (>90%); details: MM1 S cells, 0.3, 3 and 30 μM, 6 hours
T6 construct: endogenous in cells; host or cells: MM1 S (ATCC CRL-2974)
Description: as §1

GSPT1 [4] = target: T3, GSPT1; test: GSPT1 degradation immunofluorescence assay in CAL-51 cells; assay type: cell-based; parameters: endogenous in cells; host or cells: CAL-51 (DSMZ ACC302); details: 6 hours, Table 5A, read-out: Activity for GSPT1 degradation, Code (DC50)
Description: CAL-51 cells were purchased from DSMZ (cat. Number ACC302), sub-cultured in 90% Dulbecco's MEM (4.5 g/L glucose, Gibco 11965)+10% heat inactivated FBS (BioConcept, 2-01F1361) and incubated at 37° C., 5% CO2. For the assay, imaging microtiterplate Cell Carrier 96 Ultra (Perkin Elmer 6055302) were pre-coated with Fibronectin (Sigma F085, 30 μl at 0.2 μg/ml) in PBS (100 μl, Gibco 14190) for 45 min at room temperature, rinsed with PBS and CAL-51 cells (30K cells/well) were plated and let to adhere overnight. Cells were treated with compounds typically using a serial dilution ranging from 30 μM to 0.1 nM for 6 hours. Compounds were stored at 10 mM DMSO stocks. Vehicle (DMSO), positive (CC-885, 10 μM) and rescue controls (positive control plus 0.2 μM bortezomib) were also included at this stage. Cells were subsequently rinsed with PBS and fixed in 10% Formalin solution (50 μl, Sigma HT5011)) for 20 mins at room temperature. Following three consecutive PBS washes (100 μl), cells were permeabilized in 0.1% Triton X-100 in PBS (Sigma 93443, 50 μl) for 15 mins at room temperature. Following three further PBS washes, 50 μl blocking buffer (1% BSA, Sigma A4503, in PBS) was added for 45 min for signal-to-noise reduction. Primary antibody (human GSPT1, Sigma HPA052488) was diluted in blocking buffer (dil. 1/300, 35 μl/well) and incubated with the cells overnight at 4° C. After three PBS washes, Alexa-fluor 488 coupled secondary antibodies (Invitrogen, A32731, dil. 1/1000), Alexa-fluor 647-Phalloidin (Invitrogen, A22287, dil. 1/200) and DAPI (Thermo, #62248, dil. 1/1000) were diluted in blocking buffer and incubated with the samples for 2 hours at room temperature. After three final PBS washes, samples were conserved in 100 μl PBS in the dark, until measurement. Image acquisition was performed on the Operetta High-Content Imager (Perkin-Elmer). Fluorescence intensity of Alexa-Fluor 488 (GSPT1), Alexa-Fluor 647 (Actin) and DAPI (Nucleus) were measured. For the determination of GSPT1 DC50 values, a custom algorithm implemented in the PerkinElmer image analysis software Harmony-Acapella® was developed. After user-defined setting of adjustment parameters, the analysis was run identically without human intervention for all image fields. DAPI staining of the nuclei was used to determine the location of cells using standard nuclei detection modules. Segmentation artifacts were removed by threshold-based filters for area, roundness and intensity. The outline of the cells was determined analogously from the sum of the normalized, smoothed DAPI and Actin channel, starting from each nucleus. The Alexa-Fluor 488 (GSPT1) signal intensity in each cell was finally measured, in order to obtain a Mean intensity per cell. GSPT1 degradation (DC50) was calculated after normalization to controls and data import in CDD vault Database, using non-linear regression.

T1 sequence (Q96SW2 whole entry): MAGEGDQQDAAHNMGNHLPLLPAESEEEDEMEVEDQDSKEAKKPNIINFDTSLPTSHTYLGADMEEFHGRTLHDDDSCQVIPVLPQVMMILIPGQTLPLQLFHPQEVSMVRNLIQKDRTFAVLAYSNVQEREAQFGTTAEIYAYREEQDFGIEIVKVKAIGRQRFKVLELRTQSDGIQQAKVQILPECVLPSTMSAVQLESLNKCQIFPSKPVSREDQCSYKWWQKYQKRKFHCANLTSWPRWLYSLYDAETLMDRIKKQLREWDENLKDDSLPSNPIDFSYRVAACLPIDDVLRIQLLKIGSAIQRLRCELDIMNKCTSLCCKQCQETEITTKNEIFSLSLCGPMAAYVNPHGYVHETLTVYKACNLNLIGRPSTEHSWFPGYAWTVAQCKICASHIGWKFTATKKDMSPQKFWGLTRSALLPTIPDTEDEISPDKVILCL
T3 sequence (P15170 whole entry): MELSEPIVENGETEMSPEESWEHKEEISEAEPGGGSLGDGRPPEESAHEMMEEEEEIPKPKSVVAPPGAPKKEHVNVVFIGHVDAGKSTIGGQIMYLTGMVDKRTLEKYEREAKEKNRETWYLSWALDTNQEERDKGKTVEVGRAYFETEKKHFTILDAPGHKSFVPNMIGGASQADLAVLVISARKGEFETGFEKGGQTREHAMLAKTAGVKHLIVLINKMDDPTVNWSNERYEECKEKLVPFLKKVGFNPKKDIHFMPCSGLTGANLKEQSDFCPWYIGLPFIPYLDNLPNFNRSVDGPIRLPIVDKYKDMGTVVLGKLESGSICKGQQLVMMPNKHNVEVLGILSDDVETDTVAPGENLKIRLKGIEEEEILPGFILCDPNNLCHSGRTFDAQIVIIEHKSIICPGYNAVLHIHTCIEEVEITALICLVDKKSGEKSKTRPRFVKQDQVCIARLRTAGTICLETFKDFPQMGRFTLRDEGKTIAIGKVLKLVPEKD
T3 sequence (Q96SW2 whole entry): as the sequence (Q96SW2 whole entry) above
T3 sequence (Q16531 whole entry partner): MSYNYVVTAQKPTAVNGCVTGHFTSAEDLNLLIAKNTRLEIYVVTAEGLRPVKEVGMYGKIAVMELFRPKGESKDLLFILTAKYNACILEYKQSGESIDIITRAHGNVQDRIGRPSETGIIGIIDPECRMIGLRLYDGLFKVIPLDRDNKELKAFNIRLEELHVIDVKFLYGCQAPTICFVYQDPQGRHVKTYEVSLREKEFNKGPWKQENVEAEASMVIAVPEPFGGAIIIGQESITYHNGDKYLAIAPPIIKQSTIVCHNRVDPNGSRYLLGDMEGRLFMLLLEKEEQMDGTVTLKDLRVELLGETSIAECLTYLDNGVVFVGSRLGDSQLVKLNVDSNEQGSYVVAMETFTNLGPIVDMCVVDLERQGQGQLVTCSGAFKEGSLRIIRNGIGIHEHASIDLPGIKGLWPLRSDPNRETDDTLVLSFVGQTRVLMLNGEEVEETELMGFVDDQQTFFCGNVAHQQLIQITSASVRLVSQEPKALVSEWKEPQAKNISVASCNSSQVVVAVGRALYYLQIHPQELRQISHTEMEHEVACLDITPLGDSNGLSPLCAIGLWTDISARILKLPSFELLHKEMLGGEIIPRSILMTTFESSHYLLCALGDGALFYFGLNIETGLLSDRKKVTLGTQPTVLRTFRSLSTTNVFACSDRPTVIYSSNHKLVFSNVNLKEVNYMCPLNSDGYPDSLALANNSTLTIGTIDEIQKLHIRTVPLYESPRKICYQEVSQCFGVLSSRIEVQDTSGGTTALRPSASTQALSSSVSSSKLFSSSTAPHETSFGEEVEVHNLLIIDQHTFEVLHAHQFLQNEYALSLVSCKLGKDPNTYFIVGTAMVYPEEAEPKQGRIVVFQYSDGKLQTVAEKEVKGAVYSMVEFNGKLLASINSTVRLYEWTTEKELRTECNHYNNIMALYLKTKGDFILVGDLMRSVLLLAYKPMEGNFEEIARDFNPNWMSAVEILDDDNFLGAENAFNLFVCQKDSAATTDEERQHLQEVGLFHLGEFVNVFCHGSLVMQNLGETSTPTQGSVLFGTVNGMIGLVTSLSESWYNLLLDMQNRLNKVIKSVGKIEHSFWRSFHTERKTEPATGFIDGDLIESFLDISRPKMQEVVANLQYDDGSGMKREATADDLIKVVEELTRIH
T4 sequence (P48729 whole entry): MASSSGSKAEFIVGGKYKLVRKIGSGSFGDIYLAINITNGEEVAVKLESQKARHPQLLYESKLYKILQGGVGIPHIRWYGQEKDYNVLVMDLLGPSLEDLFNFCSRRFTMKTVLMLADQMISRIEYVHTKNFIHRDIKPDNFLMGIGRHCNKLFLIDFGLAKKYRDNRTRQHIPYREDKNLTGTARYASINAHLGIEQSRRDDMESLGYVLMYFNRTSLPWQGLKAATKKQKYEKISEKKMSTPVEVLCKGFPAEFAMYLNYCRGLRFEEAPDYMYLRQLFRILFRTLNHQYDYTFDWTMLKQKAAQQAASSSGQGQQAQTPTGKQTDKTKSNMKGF
T4 sequence (Q96SW2 whole entry): as the sequence (Q96SW2 whole entry) above
T4 sequence (Q16531 whole entry partner): as the sequence (Q16531 whole entry partner) above
T5 sequence (Q96JP5 whole entry): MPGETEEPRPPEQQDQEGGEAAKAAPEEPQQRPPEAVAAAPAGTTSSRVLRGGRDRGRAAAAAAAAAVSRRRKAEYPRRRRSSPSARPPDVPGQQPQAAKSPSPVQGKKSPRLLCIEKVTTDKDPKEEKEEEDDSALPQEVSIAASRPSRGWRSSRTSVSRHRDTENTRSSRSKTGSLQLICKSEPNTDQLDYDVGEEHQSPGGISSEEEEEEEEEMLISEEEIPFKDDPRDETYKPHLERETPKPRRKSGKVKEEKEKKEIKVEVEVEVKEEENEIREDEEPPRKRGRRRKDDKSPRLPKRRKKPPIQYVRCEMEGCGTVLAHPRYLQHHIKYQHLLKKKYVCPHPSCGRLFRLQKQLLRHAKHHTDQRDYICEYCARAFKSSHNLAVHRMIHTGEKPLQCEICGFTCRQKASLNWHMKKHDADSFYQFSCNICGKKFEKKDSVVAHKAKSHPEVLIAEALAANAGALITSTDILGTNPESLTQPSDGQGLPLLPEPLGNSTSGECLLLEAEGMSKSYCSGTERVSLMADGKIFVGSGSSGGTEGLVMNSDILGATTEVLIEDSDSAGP
T5 sequence (Q96SW2 whole entry): as the sequence (Q96SW2 whole entry) above
T5 sequence (Q16531 whole entry partner): as the sequence (Q16531 whole entry partner) above
T2 sequence (Q9UKT9 whole entry): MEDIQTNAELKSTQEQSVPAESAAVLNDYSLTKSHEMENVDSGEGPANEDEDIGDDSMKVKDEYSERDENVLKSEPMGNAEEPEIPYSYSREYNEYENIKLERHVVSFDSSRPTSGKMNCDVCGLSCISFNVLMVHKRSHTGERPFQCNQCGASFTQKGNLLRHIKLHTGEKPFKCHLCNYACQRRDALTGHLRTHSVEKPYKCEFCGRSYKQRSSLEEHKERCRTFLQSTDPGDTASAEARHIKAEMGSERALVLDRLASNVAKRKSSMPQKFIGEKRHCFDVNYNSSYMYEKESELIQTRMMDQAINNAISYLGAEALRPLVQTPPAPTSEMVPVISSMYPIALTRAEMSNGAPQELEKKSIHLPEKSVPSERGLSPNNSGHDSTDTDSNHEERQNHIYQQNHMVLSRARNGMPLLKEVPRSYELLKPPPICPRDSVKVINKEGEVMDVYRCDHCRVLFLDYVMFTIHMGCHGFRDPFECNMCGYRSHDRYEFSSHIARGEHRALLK
T2 sequence (Q96SW2 whole entry): as the sequence (Q96SW2 whole entry) above
T2 sequence (Q16531 whole entry partner): as the sequence (Q16531 whole entry partner) above
T6 sequence (Q13422 whole entry): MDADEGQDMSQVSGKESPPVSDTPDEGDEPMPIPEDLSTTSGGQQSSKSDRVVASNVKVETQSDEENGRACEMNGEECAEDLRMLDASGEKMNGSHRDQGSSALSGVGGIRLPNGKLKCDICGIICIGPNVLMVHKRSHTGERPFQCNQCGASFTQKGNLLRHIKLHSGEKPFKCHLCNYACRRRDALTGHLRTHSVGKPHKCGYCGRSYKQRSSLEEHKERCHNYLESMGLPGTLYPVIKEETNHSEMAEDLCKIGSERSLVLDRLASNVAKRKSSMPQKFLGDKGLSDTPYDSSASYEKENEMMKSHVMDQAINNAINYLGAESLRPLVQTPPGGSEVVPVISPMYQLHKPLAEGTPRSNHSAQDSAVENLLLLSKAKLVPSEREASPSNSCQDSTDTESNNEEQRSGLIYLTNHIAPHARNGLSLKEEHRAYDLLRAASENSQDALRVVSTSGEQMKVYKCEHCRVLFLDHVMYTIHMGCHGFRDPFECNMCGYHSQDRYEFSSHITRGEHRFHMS
T6 sequence (Q96SW2 whole entry): as the sequence (Q96SW2 whole entry) above
T6 sequence (Q16531 whole entry partner): as the sequence (Q16531 whole entry partner) above

Row | IC50 [2] [nM] | SMILES | EC50 [1] [nM] | also measured
1 | < 600 | O=C1CCC(N2Cc3ccc(CNC(=O)Nc4ccc(Cl)c(Cl)c4)cc3C2=O)C(=O)N1 (stereo not shown) [Compound 46] | ≤ 2000 | 
2 | < 600 | Cc1cc(C)cc(NC(=O)NCc2ccc3c(c2)C(=O)N(C2CCC(=O)NC2=O)C3)c1 (stereo not shown) [Compound 20] | ≤ 2000 | 
3 |  | O=C1CCC(N2Cc3ccc(COC(=O)Nc4cccc(OC(F)(F)F)c4)cc3C2=O)C(=O)N1 (stereo not shown) [Compound 203] |  | IKZF3 degradation (IKZF3): A; GSPT1 degradation (GSPT1 [3]): F (F represents degradation at 0.3 μM (>90%)); CK1alpha degradation (CK1alpha): B (B represents trace degradation at 30 μM (below 20%)); ZFP91 degradation (ZFP91): B (B represents trace degradation at 30 μM (below 20%)); IKZF1 degradation (IKZF1): A; DC50 (GSPT1 [4]): ≤ 30 nM
4 | < 600 | COc1ccc(NC(=O)NCc2ccc3c(c2)C(=O)N(C2CCC(=O)NC2=O)C3)cc1Cl (stereo not shown) [Compound 59] | ≤ 2000 | 
5 |  | Cc1ccc(NC(=O)NCc2ccc3c(c2)C(=O)N(C2CCC(=O)NC2=O)C3)cc1C (stereo not shown) [Compound 68] | ≤ 2000 | 
6 | < 600 | O=C1CCC(N2Cc3ccc(CNC(=O)Nc4cccc(C(F)(F)F)c4)cc3C2=O)C(=O)N1 (stereo not shown) [Compound 47] | ≤ 2000 | 
7 |  | CCc1cccc(NC(=O)NCc2ccc3c(c2)C(=O)N(C2CCC(=O)NC2=O)C3)c1 (stereo not shown) [Compound 31] | ≤ 2000 | 
